Data published in patent US3970648A, “2-[2-(5-Nitro-2-furyl)vinyl]-4-(anilino)quinazolines” (Diamond Shamrock Corporation, priority 1974, dated 1976).

Experiments:
Type in all cases: cell-based
Staphylococcus aureus = assay: Bactericide test, Staphylococcus aureus (agar streak plate); conditions: Staphylococcus aureus
Excerpt: (§1) Test formulations were examined for bactericidal and/or bacteriostatic activity against the test organisms shown in Tables A and B. These organisms were chosen as being representative of commercially important pathogens affecting animal agriculture. The antibiotic chlortetracycline was chosen as a positive control, since it has a broad spectrum of activity against a large number of organisms, and its activity can be used for comparative purposes.
(§2) Basic test formulations of the product of Examples I, II, III, and of chlortetracycline were prepared by dissolving 16 mg (0.016 g) in 2.0 ml of stock emulsifier solution (0.25% Triton X-155 in acetone by volume) and making each solution up to 50 ml with deionized water. The concentration of the test compound in the basic formulation was 320 ppm. Lower concentrations of the test compound were obtained by diluting the basic formulation with a 4% solution of the stock emulsifier in deionized water so that each dilution in the series differed only in test compound content.
(§3) Nutrient-tryptic soy agar (NTA) consisting of 2.0% Difco Bactoagar 0.8% nutrient broth (Difco), and 0.5% tryptic soy broth (Difco) was prepared and sterilized by autoclaving. A 2 ml aliquot of each test formulation was added to 8 ml of molten NTA. This mixture was then plated in a sterile polystyrene petri dish (100 × 15 mm). After the agar was set, suspensions of each of the test organisms were simultaneously streaked onto the surface of the agar. The inoculated plates were incubated for 48 hr at 28°C. The inhibition of growth of each organism was rated by visual comparison with the organism developing on non-treated agar. Growth inhibition reported as per cent control was rated in three categories as follows: 0% control, growth equivalent to that on non-treated agar; 50% control, sparse development and separated colonies; 100% control, no visible growth or development of colonies.
(§4) Test formulations of the product of Example IV were examined for bactericidal and/or bacteriostatic activity against the test organisms shown in Table B using the Bactericide Test described in Example V. The inhibition of organism growth with each diluted test formulation was rated visually by comparison with the organism developing on a non-treated control agar plate. Growth inhibition reported as per cent control was rated in three categories as follows: 0% control, growth equivalent to that on non-treated agar; 50% control is sparse development and separated colonies; and 100% control, development of individual colonies was not apparent.

[1] = tested on: Bordetella bronchiseptica; assay: Bactericide test, Bordetella bronchiseptica (agar streak plate); conditions: Bordetella bronchiseptica
Excerpt: as §1, §2, §3

Salmonella typhimurium = assay: Bactericide test, Salmonella typhimurium (agar streak plate); conditions: Salmonella enterica, TYPHIMURIUM
Excerpt: as §1, §2, §3

Salmonella cholerasuis = assay: Bactericide test, Salmonella cholerasuis (agar streak plate); conditions: Salmonella
Excerpt: as §1, §2, §3, §4

Escherichia coli = assay: Bactericide test, Escherichia coli (agar streak plate)
Excerpt: as §1, §2, §3, §4

Vibrio coli = assay: Bactericide test, Vibrio coli (agar streak plate); conditions: Campylobacter coli
Excerpt: as §1, §2, §3

Streptococcus group E = assay: Bactericide test, Streptococcus group E (agar streak plate)
Excerpt: as §1, §2, §3

Streptococcus faecalis = assay: Bactericide test, Streptococcus faecalis (agar streak plate); conditions: Enterococcus faecalis
Excerpt: as §1, §2, §3, §4

Streptococcus agalactiae = assay: Bactericide test, Streptococcus agalactiae (agar streak plate); conditions: Streptococcus agalactiae
Excerpt: as §1, §2, §3

[2] = tested on: Erysipelothrix rhusiopathiae; assay: Bactericide test, Erysipelothrix rhusiopathiae (agar streak plate); conditions: Erysipelothrix rhusiopathiae
Excerpt: as §1, §2, §3

Salmonella gallinarum = assay: Bactericide test, Salmonella gallinarum (agar streak plate); conditions: Salmonella enterica, GALLINARUM
Excerpt: as §1, §2, §3, §4

CN(C)[C@@H]1C(O)=C(C(N)=O)C(=O)[C@@]2(O)C(O)=C3C(=O)c4c(O)ccc(Cl)c4[C@@](C)(O)[C@H]3C[C@@H]12 [Chlortetracycline, reference compound]
inhibition at 1 ppm (Staphylococcus aureus): 0%
inhibition at 4 ppm (Staphylococcus aureus): 0%
inhibition at 16 ppm (Staphylococcus aureus): 100%
inhibition at 64 ppm (Staphylococcus aureus): 100%
inhibition at 1 ppm [1]: 0%
inhibition at 4 ppm [1]: 0%
inhibition at 16 ppm [1]: 0%
inhibition at 64 ppm [1]: 100%
inhibition at 1 ppm (Salmonella typhimurium): 0%
inhibition at 4 ppm (Salmonella typhimurium): 0%
inhibition at 16 ppm (Salmonella typhimurium): 0%
inhibition at 64 ppm (Salmonella typhimurium): 0%
inhibition at 1 ppm (Salmonella cholerasuis): 0%
inhibition at 4 ppm (Salmonella cholerasuis): 0%
inhibition at 16 ppm (Salmonella cholerasuis): 100%
inhibition at 64 ppm (Salmonella cholerasuis): 100%
inhibition at 1 ppm (Escherichia coli): 0%
inhibition at 4 ppm (Escherichia coli): 0%
inhibition at 16 ppm (Escherichia coli): 100%
inhibition at 64 ppm (Escherichia coli): 100%
inhibition at 1 ppm (Vibrio coli; 1 ppm): 0%
inhibition at 4 ppm (Vibrio coli; 4 ppm): 100%
inhibition at 16 ppm (Vibrio coli; 16 ppm): 100%
inhibition at 64 ppm (Vibrio coli; 64 ppm): 100%
inhibition at 1 ppm (Streptococcus group E): 0%
inhibition at 4 ppm (Streptococcus group E): 0%
inhibition at 16 ppm (Streptococcus group E): 100%
inhibition at 64 ppm (Streptococcus group E): 100%
inhibition at 1 ppm (Streptococcus faecalis): 100%
inhibition at 4 ppm (Streptococcus faecalis): 100%
inhibition at 16 ppm (Streptococcus faecalis): 100%
inhibition at 64 ppm (Streptococcus faecalis): 100%
inhibition at 1 ppm (Streptococcus agalactiae): 0%
inhibition at 4 ppm (Streptococcus agalactiae): 100%
inhibition at 16 ppm (Streptococcus agalactiae): 100%
inhibition at 64 ppm (Streptococcus agalactiae): 100%
inhibition at 1 ppm ([2]; 1 ppm): 0%
inhibition at 4 ppm ([2]; 4 ppm): 10%
inhibition at 16 ppm ([2]; 16 ppm): 100%
inhibition at 64 ppm ([2]; 64 ppm): 100%
inhibition at 1 ppm (Salmonella gallinarum; 1 ppm): 0%
inhibition at 4 ppm (Salmonella gallinarum; 4 ppm): 0%
inhibition at 16 ppm (Salmonella gallinarum; 16 ppm): 100%
inhibition at 64 ppm (Salmonella gallinarum; 64 ppm): 100%
